PubChem BioAssay (NCI)
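96-well plates; 48 h exposure; 5 concentrations. Endpoints by linear interpolation between flanking doses. Not reached: highest tested concentration assigned. GI50 is the concentration that inhibits growth by half. TGI marks complete inhibition of growth.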

What was measured:
Assay in all cases: NCI tumour cell line growth inhibition, 48 h
HS 578T breast = test system: HS 578T breast
A549 NSCLC = test system: A549 NSCLC
OVCAR-5 ovarian = test system: OVCAR-5 ovarian
IGROV1 ovarian = test system: IGROV1 ovarian
COLO 205 colon = test system: COLO 205 colon
UACC-62 melanoma = test system: UACC-62 melanoma
CCRF-CEM leukemia = test system: CCRF-CEM leukemia
ACHN renal = test system: ACHN renal
MCF7 breast = test system: MCF7 breast
CAKI-1 renal = test system: CAKI-1 renal
SNB-75 CNS = test system: SNB-75 CNS
SNB-19 CNS = test system: SNB-19 CNS
SF-268 CNS = test system: SF-268 CNS
DU-145 prostate = test system: DU-145 prostate
HCT-15 colon = test system: HCT-15 colon
HOP-62 NSCLC = test system: HOP-62 NSCLC
OVCAR-8 ovarian = test system: OVCAR-8 ovarian
A498 renal = test system: A498 renal
U251 CNS = test system: U251 CNS
RXF 393 renal = test system: RXF 393 renal
MDA-MB-231 breast = test system: MDA-MB-231 breast
HOP-92 NSCLC = test system: HOP-92 NSCLC
LOX IMVI melanoma = test system: LOX IMVI melanoma
T-47D breast = test system: T-47D breast
SF-295 CNS = test system: SF-295 CNS
NCI-H460 lung = test system: NCI-H460 lung
SF-539 CNS = test system: SF-539 CNS
NCI-H23 lung = test system: NCI-H23 lung
UACC-257 melanoma = test system: UACC-257 melanoma
SR leukemia = test system: SR leukemia
BT-549 breast = test system: BT-549 breast
SK-OV-3 ovarian = test system: SK-OV-3 ovarian
HT29 colon = test system: HT29 colon
RPMI-8226 leukemia = test system: RPMI-8226 leukemia
EKVX NSCLC = test system: EKVX NSCLC
786-0 renal = test system: 786-0 renal
KM12 colon = test system: KM12 colon
MDA-MB-435 = test system: MDA-MB-435
NCI/ADR-RES ovarian = test system: NCI/ADR-RES ovarian
NCI-H522 lung = test system: NCI-H522 lung
SK-MEL-2 melanoma = test system: SK-MEL-2 melanoma
MOLT-4 leukemia = test system: MOLT-4 leukemia
PC-3 prostate = test system: PC-3 prostate
SK-MEL-28 melanoma = test system: SK-MEL-28 melanoma
UO-31 renal = test system: UO-31 renal
HCT-116 colon = test system: HCT-116 colon
HCC-2998 colon = test system: HCC-2998 colon
MALME-3M melanoma = test system: MALME-3M melanoma
TK-10 renal = test system: TK-10 renal
NCI-H226 lung = test system: NCI-H226 lung
SN12C renal = test system: SN12C renal
K-562 leukemia = test system: K-562 leukemia
HL-60(TB) leukemia = test system: HL-60(TB) leukemia
SW-620 colon = test system: SW-620 colon
SK-MEL-5 melanoma = test system: SK-MEL-5 melanoma
OVCAR-3 ovarian = test system: OVCAR-3 ovarian
M14 melanoma = test system: M14 melanoma

Compound: COc1cc(-c2ccc[nH]2)[nH]c1/C=C1\N=C(C)C(C(=O)NC(C)C)=C1C
- GI50 (HS 578T breast): 2.84 µM
- TGI (HS 578T breast): 10.5 µM
- GI50 (A549 NSCLC): 2.94 µM
- TGI (A549 NSCLC): 10.5 µM
- GI50 (OVCAR-5 ovarian): 2.97 µM
- TGI (OVCAR-5 ovarian): 17.3 µM
- GI50 (IGROV1 ovarian): 4.81 µM
- TGI (IGROV1 ovarian): 25.4 µM
- GI50 (COLO 205 colon): 3.25 µM
- TGI (COLO 205 colon): 14.1 µM
- GI50 (UACC-62 melanoma): 2.68 µM
- TGI (UACC-62 melanoma): 6.77 µM
- GI50 (CCRF-CEM leukemia): 1.77 µM
- TGI (CCRF-CEM leukemia): 32 µM
- GI50 (ACHN renal): 3.59 µM
- TGI (ACHN renal): 13.3 µM
- GI50 (MCF7 breast): 2.82 µM
- TGI (MCF7 breast): 12.3 µM
- GI50 (CAKI-1 renal): 2.8 µM
- TGI (CAKI-1 renal): 10.9 µM
- GI50 (SNB-75 CNS): 4.94 µM
- TGI (SNB-75 CNS): 17.2 µM
- GI50 (SNB-19 CNS): 10.4 µM
- TGI (SNB-19 CNS): 23.8 µM
- GI50 (SF-268 CNS): 4.78 µM
- TGI (SF-268 CNS): 18 µM
- GI50 (DU-145 prostate): 4.7 µM
- TGI (DU-145 prostate): 18.2 µM
- GI50 (HCT-15 colon): 2.08 µM
- TGI (HCT-15 colon): 13.5 µM
- GI50 (HOP-62 NSCLC): 3.77 µM
- TGI (HOP-62 NSCLC): 15.8 µM
- GI50 (OVCAR-8 ovarian): 3.43 µM
- TGI (OVCAR-8 ovarian): 13.5 µM
- GI50 (A498 renal): 8.91 µM
- TGI (A498 renal): 21.6 µM
- GI50 (U251 CNS): 2.59 µM
- TGI (U251 CNS): 13.3 µM
- GI50 (RXF 393 renal): 2.28 µM
- TGI (RXF 393 renal): 9.66 µM
- GI50 (MDA-MB-231 breast): 2.76 µM
- TGI (MDA-MB-231 breast): 12.9 µM
- GI50 (HOP-92 NSCLC): 2.22 µM
- TGI (HOP-92 NSCLC): 6.05 µM
- GI50 (LOX IMVI melanoma): 0.74 µM
- TGI (LOX IMVI melanoma): 2.52 µM
- GI50 (T-47D breast): 3.02 µM
- TGI (T-47D breast): 10.7 µM
- GI50 (SF-295 CNS): 2.9 µM
- TGI (SF-295 CNS): 11.4 µM
- GI50 (NCI-H460 lung): 2.44 µM
- TGI (NCI-H460 lung): 12.7 µM
- GI50 (SF-539 CNS): 5.47 µM
- TGI (SF-539 CNS): 20.2 µM
- GI50 (NCI-H23 lung): 3.63 µM
- TGI (NCI-H23 lung): 16 µM
- GI50 (UACC-257 melanoma): 2.54 µM
- TGI (UACC-257 melanoma): 6.42 µM
- GI50 (SR leukemia): 2.17 µM
- TGI (SR leukemia): 7.87 µM
- GI50 (BT-549 breast): 4.62 µM
- TGI (BT-549 breast): 18.9 µM
- GI50 (SK-OV-3 ovarian): 10.7 µM
- TGI (SK-OV-3 ovarian): 22.8 µM
- GI50 (HT29 colon): 0.508 µM
- TGI (HT29 colon): 10.8 µM
- GI50 (RPMI-8226 leukemia): 2.23 µM
- TGI (RPMI-8226 leukemia): 5.97 µM
- GI50 (EKVX NSCLC): 6.35 µM
- TGI (EKVX NSCLC): 23.2 µM
- GI50 (786-0 renal): 2.9 µM
- TGI (786-0 renal): 11.7 µM
- GI50 (KM12 colon): 1.93 µM
- TGI (KM12 colon): 13.7 µM
- GI50 (MDA-MB-435): 4.51 µM
- TGI (MDA-MB-435): 19.5 µM
- GI50 (NCI/ADR-RES ovarian): 4.24 µM
- TGI (NCI/ADR-RES ovarian): 16.5 µM
- GI50 (NCI-H522 lung): 2.15 µM
- TGI (NCI-H522 lung): 6.65 µM
- GI50 (SK-MEL-2 melanoma): 2.45 µM
- TGI (SK-MEL-2 melanoma): 5.49 µM
- GI50 (MOLT-4 leukemia): 2.47 µM
- TGI (MOLT-4 leukemia): 24 µM
- GI50 (PC-3 prostate): 4.67 µM
- TGI (PC-3 prostate): 19.3 µM
- GI50 (SK-MEL-28 melanoma): 7.17 µM
- TGI (SK-MEL-28 melanoma): 19.8 µM
- GI50 (UO-31 renal): 2.72 µM
- TGI (UO-31 renal): 11 µM
- GI50 (HCT-116 colon): 1.52 µM
- TGI (HCT-116 colon): 4.25 µM
- GI50 (HCC-2998 colon): 2.87 µM
- TGI (HCC-2998 colon): 13.8 µM
- GI50 (MALME-3M melanoma): 4.6 µM
- TGI (MALME-3M melanoma): 16.9 µM
- GI50 (TK-10 renal): 3.1 µM
- TGI (TK-10 renal): 9.71 µM
- GI50 (NCI-H226 lung): 3.77 µM
- TGI (NCI-H226 lung): 20.4 µM
- GI50 (SN12C renal): 10.7 µM
- TGI (SN12C renal): 24 µM
- GI50 (K-562 leukemia): 3.53 µM
- TGI (K-562 leukemia): 15.2 µM
- GI50 (HL-60(TB) leukemia): 2.4 µM
- TGI (HL-60(TB) leukemia): 10.3 µM
- GI50 (SW-620 colon): 3.08 µM
- TGI (SW-620 colon): 14.7 µM
- GI50 (SK-MEL-5 melanoma): 1.34 µM
- TGI (SK-MEL-5 melanoma): 2.7 µM
- GI50 (OVCAR-3 ovarian): 3.03 µM
- TGI (OVCAR-3 ovarian): 14.2 µM
- GI50 (M14 melanoma): 1.97 µM
- TGI (M14 melanoma): 4.4 µM
